Data on one compound can be found in patent publication US5698528A, “Substance IT-62-B and medicinal composition containing the same” (Taiho Pharmaceutical Co., Ltd., priority 1994, dated 1997).

Assay [1] has as its system KB cell line derived from human nasopharyngeal carcinoma. As to the kind of experiment: 50% inhibitory concentration against KB cell line (growth inhibition, trypan blue viable count). It counts as cell-based. The settings on record: 72 h, incubation for 3 days, 37° C., trypan blue dye exclusion. Here is the method:
A. Determination of 50% inhibitory concentration against the established culture cell line derived from human nasopharyngeal carcinoma:
A 50% inhibitory concentration (IC50) of the compound according to the present invention against an established culture cell line (KB cell line) derived from human nasopharyngeal carcinoma was determined. More specifically, the KB cell line (2×10^3 cells/ml of medium) was cultured in an Eagle's minimal essential medium supplemented with a 10% calf serum, and 3 ml of this culture medium was incubated in a plastic Petri dish to incubate it at 37° C. in a CO2 -incubator (5% CO2). After overnight incubation, the compound according to the present invention was added with the compound diluted from a concentration of 1 μg/ml to a concentration of 1×10^-6 μg/ml by 10-fold dilution.

Assay [2] relates to Bacillus subtilis ATCC(rec^-). As to the kind of experiment: Antibacterial MIC (agar dilution). Format: cell-based. The settings on record: Muller-Hinton agar, 37° C., 18 hours, 10^6 cells/ml. Here is the method:
(§1) (1) Determination of antibacterial activities of the substance IT-62-B:
(§2) Minimum inhibitory concentrations (MICs) of the compound according to the present invention against various bacteria were determined in accordance with the MIC measurement method of Japan Society of Chemotherapy (see journal of Chemotherapy, Vol. 29, No. 1, pp. 76-79, 1981). More specifically, Muller-Hinton agar media (product of Difco Co.) containing the compound according to the present invention at various concentrations were used. The test organisms diluted to 10^6 cells/ml, respectively, were inoculated said test organisms having been grown on the same medium as described above.

For assay [3], the system named is Klebsiella pneumoniae ATCC 29665. Put plainly: Antibacterial MIC (agar dilution). As to conditions: ATCC29665, Muller-Hinton agar, 37° C., 18 hours, 10^6 cells/ml. Format: cell-based. Here is the method:
as §1, §2
Background: In agar dilution the substance is mixed into plates at graded concentrations.

Assay [4] concerns Micrococcus luteus ATCC 9341. As to the kind of experiment: Antibacterial MIC (agar dilution). It counts as cell-based. The settings on record: ATCC9341, Muller-Hinton agar, 37° C., 18 hours, 10^6 cells/ml. Here is the method:
as §1, §2

Assay [5] has as its system Micrococcus luteus ATCC 10240. Put plainly: Antibacterial MIC (agar dilution). Format: cell-based. The settings on record: ATCC10240, Muller-Hinton agar, 37° C., 18 hours, 10^6 cells/ml. Here is the method: as §1, §2
Assay [6] deals with Staphylococcus aureus (MRSA)92-1192. Put plainly: Antibacterial MIC (agar dilution). Format: cell-based. The settings on record: 18 h. Here is the method: as §1, §2
The subject of another assay is Bacillus cereus IFO 3001. Put plainly: Antibacterial MIC (agar dilution). It counts as cell-based. As to conditions: IFO3001, Muller-Hinton agar, 37° C., 18 hours, 10^6 cells/ml. Here is the method:
as §1, §2

In assay [7] the test system is Serratia marcescens IFO 12648. Put plainly: Antibacterial MIC (agar dilution). Format: cell-based. The settings on record: IFO12648, Muller-Hinton agar, 37° C., 18 hours, 10^6 cells/ml. Here is the method:
as §1, §2

In assay [8] the test system is Bacillus subtilis ATCC 6633. Put plainly: Antibacterial MIC (agar dilution). It counts as cell-based. The settings on record: ATCC6633, Muller-Hinton agar, 37° C., 18 hours, 10^6 cells/ml. Here is the method:
as §1, §2

In assay [9] the test system is Staphylococcus epidermidis ATCC 12228. Put plainly: Antibacterial MIC (agar dilution). It counts as cell-based. As to conditions: ATCC12228, Muller-Hinton agar, 37° C., 18 hours, 10^6 cells/ml. Here is the method:
as §1, §2

For assay [10], the system named is Escherichia coli IAM 1268. Put plainly: Antibacterial MIC (agar dilution). Format: cell-based. As to conditions: IAM1268, Muller-Hinton agar, 37° C., 18 hours, 10^6 cells/ml. Here is the method: as §1, §2
Assay [11] deals with Bacillus subtilis ATCC(rec^+). As to the kind of experiment: Antibacterial MIC (agar dilution). Format: cell-based. As to conditions: Muller-Hinton agar, 37° C., 18 hours, 10^6 cells/ml. Here is the method:
as §1, §2

Assay [12] relates to Staphylococcus aureus Smith. Put plainly: Antibacterial MIC (agar dilution). It counts as cell-based. As to conditions: Muller-Hinton agar, 37° C., 18 hours, 10^6 cells/ml. Here is the method:
as §1, §2

The next assay deals with Escherichia coli NIHJ. Put plainly: Antibacterial MIC (agar dilution). Format: cell-based. The settings on record: Muller-Hinton agar, 37° C., 18 hours, 10^6 cells/ml. Here is the method:
as §1, §2

Assay [13] has as its system Enterococcus faecalis IFO 12968. As to the kind of experiment: Antibacterial MIC (agar dilution). Format: cell-based. The settings on record: IFO12968, Muller-Hinton agar, 37° C., 18 hours, 10^6 cells/ml. Here is the method: as §1, §2
Assay [14] deals with Salmonella typhymurium G-46. As to the kind of experiment: Antibacterial MIC (agar dilution). The settings on record: G46, Muller-Hinton agar, 37° C., 18 hours, 10^6 cells/ml. Format: cell-based. Here is the method:
as §1, §2

In assay [15] the test system is Proteus vulgaris IID OX-19. Put plainly: Antibacterial MIC (agar dilution). Format: cell-based. The settings on record: IIDOX19, Muller-Hinton agar, 37° C., 18 hours, 10^6 cells/ml. Here is the method:
as §1, §2

Assay [16] concerns Pseudomonas aeruginosa NCTC 10490. Put plainly: Antibacterial MIC (agar dilution). Format: cell-based. The settings on record: NCTC10490, Muller-Hinton agar, 37° C., 18 hours, 10^6 cells/ml. Here is the method: as §1, §2
Assay [17] concerns Alcaligenes faecalis IAM 1015. As to the kind of experiment: Antibacterial MIC (agar dilution). It counts as cell-based. As to conditions: IAM1015, Muller-Hinton agar, 37° C., 18 hours, 10^6 cells/ml. Here is the method:
as §1, §2

In assay [18] the test system is Staphylococcus aureus (MRSA)70. Put plainly: Antibacterial MIC (agar dilution). It counts as cell-based. As to conditions: 18 h. Here is the method: as §1, §2
Assay [19] deals with murine leukemia P388 cells. Put plainly: Survival effect against murine leukemia P388 cells implanted intraperitoneally. It counts as in vivo, mouse (male CDF1). As to conditions: 0.25 mg/kg intraperitoneally, 1 day after i.p. implantation of 1×10^6 P388 cells, male CDF1 mice. From the text: B. Survival effect against murine leukemia P388 cells implanted intraperitoneally:
The antitumor activity of the compound according to the present invention was judged by the survival effect against murine leukemia (p388 cells). The three of Male CDF1 mice (aged 6 weeks) were used as test animals for an administering group and 10 mice for an untreating control group. Murine leukemia P388 cells (1×10^6 cells) were implanted intraperitoneally in all the mice. Upon elapsed time of 1 day (the first day) after the implantation, the substance IT-62-B dissolved in a 3.5% solution of dimethyl sulfoxide in physiological saline was administered intraperitoneally to the mice of the administering group at a dose of 0.25 mg/kg so as to observe survival days of the mice. […] [formula]

The structures appear in SMILES notation. In brackets after ≈: the same amount, converted by molar mass.

What is called IC50 is the concentration needed to halve the response being measured. A high value points to lower potency. As usually defined, the MIC is the lowest concentration that inhibits growth of the organism. Lower therefore signals a more susceptible organism. The compound `COc1cccc2c1C(=O)c1c(O)c3c(c(O)c1C2=O)CC(O)(C(C)=O)CC3OC1CC2C(OC(CC(C)O)OC(C)C3OC(C(C)CO)C(=O)N23)C(C)O1` (stereo not drawn) [IT-62-B] showed an IC50 in [1] of 0.006 µg/mL (≈ 0.00779 µM). Also, the MIC in assay [2] is 0.39 µg/mL (≈ 0.507 µM); in assay [3], more than 100 µg/mL; in [4], 3.13 µg/mL (≈ 4.07 µM); in [5], 1.56 µg/mL (≈ 2.03 µM); in assay [6] it was 12.5 µg/mL (≈ 16.2 µM); in the assay on Bacillus cereus IFO 3001, 12.5 µg/mL (≈ 16.2 µM). For the same compound, the MIC was more than 100 µg/mL in [7]; 3.13 µg/mL (≈ 4.07 µM) in assay [8]; 25 µg/mL (≈ 32.5 µM) in assay [9]; 50 µg/mL (≈ 65 µM) in [10]; 6.25 µg/mL (≈ 8.12 µM) in [11]; 6.25 µg/mL (≈ 8.12 µM) in assay [12]. Further, the MIC was 100 µg/mL (≈ 130 µM) with Escherichia coli NIHJ; 50 µg/mL (≈ 65 µM) in assay [13]; more than 100 µg/mL in assay [14]; more than 100 µg/mL in assay [15]; more than 100 µg/mL in [16]; 12.5 µg/mL (≈ 16.2 µM) in assay [17]. Also, in assay [18], inhibition of growth (MIC) required 12.5 µg/mL (≈ 16.2 µM). Moreover, the “Percent increase in survival” value in assay [19] turned out to be 119%.
